Assay results: US7947854B2, “Bis-cationic compounds and use thereof” (The University of Sydney, priority 2003, dated 2011)
Marks after values point to notes of the source that are not given here.

Experiments:
Assay type in all cases: biochemical, Cryptococcus neoformans H99
Conditions in all cases: modifier 10 mM (Triton X-100 0.1% w/v)
[1] = system: membrane-associated phospholipase B (PLB activity); assay: Radiometric assay, membrane-associated PLB activity
Experimental: (§1) Fungal isolates and media. […] Isolate H99 was kindly supplied by Dr. Gary Cox (Duke University Medical Center, Durham, N.C., USA), and subcultured onto Sabouraud dextrose agar (SDA) at 30° C.
(§2) Cellular disruption to prepare membrane and cytosolic fractions. The cell pellet from the preparation of the supernatant, above, was also frozen at −70° C. After washing twice with imidazole buffer, it was disrupted in the presence of a protease inhibitor cocktail (P 8215 for fungal and yeast cells; 4-(2-aminoethyl)benzenesulfonyl fluoride hydrochloride, 100 mM, 1,10-phenanthroline, 500 mM, pepstatin A, 2.2 mM, E-64, 1.4 mM; Sigma) in a MiniBeadbeater-8 Cell Disrupter (MBB-8; Daintree Scientific, Tasmania, Australia) for three cycles of 1 min, alternating with a 1 min cooling period on ice. The homogenate was centrifuged at 14,000 g for 15 min to obtain the membrane (pellet) and the cytosolic (supernatant) fractions.
(§3) Radiometric assay method for phospholipases. Enzyme activities were measured as described previously in a final volume of 125 μL at 37° C. For the determination of secreted PLB activity, carrier dipalmitoyl phosphatidylcholine (DPPC, final concentration 800 μM) and 1,2-di[1-^14C] palmitoyl phosphatidylcholine (20,000 dpm) were dried under nitrogen and suspended in 125 mM imidazole acetate buffer (assay buffer, pH 4.0) by sonication using a Branson 450 sonifier. The reaction time was 22 min, using 1 μg total protein and PLB activity was determined by the rate of decrease of the radiolabelled PC substrate, with appearance of the label in free fatty acid. This assay also simultaneously allows for the determination of phospholipase A, C and D activities. These activities were measured by the appearance of radiolabel from PC in Lyso PC, diacylglycerol and phosphatidic acid, respectively.
(§4) All reactions were terminated by adding 0.5 mL of chloroform:methanol (2:1 v/v). The reaction products were extracted by the method as disclosed in Bligh, E. C. and W. J. Dyer. 1959 ‘A rapid method of total lipid extraction and purification.’ Can. J. Biochem. Physiol. 37:911-917, separated by TLC and quantified as previously described. In the case of PLC activity, the TLC plates were developed in petroleum ether (BP 60-80° C.): diethyl ether: acetic acid (90:15:1, v/v/v) instead of chloroform:methanol:water (65:25:4, v/v/v).
(§5) All experiments were carried out in duplicate or triplicate. The effects of pH on the various phospholipase activities were measured using 50 mM final concentration of imidazole-acetate buffer (pH range 3-5), MES buffer (pH range 6-8) and glycine buffer (pH 9-10). Controls for non-enzymic breakdown of substrates were included at all pH values. Cations, Triton X-100 and metal chelators were made up as stock solutions in water and diluted to the final concentration in the appropriate assay buffer.
(§6) Preparation of inhibitors and use in assays. The following compounds were tested (for structures, see FIG. 2): compound 1, 1,12-bis(tributylphosphonium)dodecane dibromide (Fluka AG, Buchs, Switzerland); compound 2, 1,10-bis(tributylammonium)-decane dibromide; compound 3, 1,12-bis(tributylammonium)do-decane dibromide (both synthesised in-house); compound 4, 1,10-bis(trimethylammonium)decane dibromide [“decamethonium”] (Sigma, St. Louis Mo., USA). All compounds were prepared as stock solutions of 700 μM in assay buffer containing 5 mM EDTA, which was then diluted serially with buffer to obtain solutions of 70, 7, 0.7 and 0.07 μM. In each assay, 45 μL of these solutions was used, and the final volume of 125 μL was made up of substrate, enzyme and buffer. The radiometric assay was carried out as above.

[2] = system: cytosolic phospholipase B (PLB activity); assay: Radiometric assay, cytosolic PLB activity
Experimental: as §1, §2, §3, §4, §5, §6

[3] = system: cytosolic phospholipase B (LPL/LPTA activities); assay: Radiometric assay, cytosolic LPL/LPTA activities
Experimental: as §1, §2
(§7) Secreted LPL and LPTA activities were measured simultaneously in a reaction mixture containing 1-[^14C]palmitoyl lyso-PC (25,000 dpm) and carrier lyso-PC (final concentration 200 μM) in assay buffer. The reaction time was […] with 1 μg of total protein and LPL activity was measured by the rate of loss of 1-[^14C]palmitoyl lyso-PC with release of radiolabelled fatty acids. LPTA activity was estimated from the rate of formation of radiolabelled PC.
as §4, §5
(§8) Preparation of inhibitors and use in assays. The following compounds were tested (for structures, see FIG. 2): compound 1, 1,12-bis(tributylphosphonium)dodecane dibromide (Fluka AG, Buchs, Switzerland); compound 2, 1,10-bis(tributylammonium)-decane dibromide; compound 3, 1,12-bis(tributylammonium)do-decane dibromide (both synthesised in-house); compound 4, 1,10-bis(trimethylammonium)decane dibromide [“decamethonium”] (Sigma, St. Louis Mo., USA). All compounds were prepared as stock solutions of 700 μM in assay buffer containing 5 mM EDTA, which was then diluted serially with buffer to obtain solutions of 70, 7, 0.7 and 0.07 μM. In each assay, 45 μL of these solutions was used, and the final volume of 125 μL was made up of substrate, enzyme and buffer. The radiometric assay was carried out as above. Inhibition was calculated as the percent of substrates (DPPC or Lyso-PC) remaining in the case of PLB and LPL activities, or of DPPC produced, in the case of the LPTA activity. The amounts converted, or produced, in the inhibitor-free control were normalised to 100%, and the inhibition calculated against it. All assays were done in triplicate.
(§9) Under these conditions only PLB, LPL and LPTA activities (both secreted and cell-associated) were measured. Initially, compounds deemed to be potential inhibitors were assayed at 25 and 250 μM.

[4] = system: membrane-associated phospholipase B (LPL/LPTA activities); assay: Radiometric assay, membrane-associated LPL/LPTA activities
Experimental: as §1, §2, §7, §4, §5, §8, §9

Molecule | Membrane-associated PLB activity, percentage of the control ([1]; pH 4.0) | Membrane-associated PLB activity, percentage of the control ([1]; pH 7.0) | Cytosolic PLB activity, percentage of the control ([2]; pH 4.0) | Cytosolic PLB activity, percentage of the control ([2]; pH 7.0) | Cytosolic LPL activity, percentage of the control ([3]; pH 4.0) | Cytosolic LPTA activity, percentage of the control ([3]; pH 4.0) | Cytosolic LPL activity, percentage of the control ([3]; pH 7.0) | Cytosolic LPTA activity, percentage of the control ([3]; pH 7.0) | Membrane-associated LPL activity, percentage of the control ([4]; pH 4.0) | Membrane-associated LPTA activity, percentage of the control ([4]; pH 4.0) | Membrane-associated LPL activity, percentage of the control ([4]; pH 7.0) | Membrane-associated LPTA activity, percentage of the control ([4]; pH 7.0)
[Ca+2] [Calcium] | 83% | 533* % | 100% | 591* % | 100% | 100% | 236% | 206% | 100% | 96% | 166* % | 140* %
O=C(O)CN(CCN(CC(=O)O)CC(=O)O)CC(=O)O [EDTA, ethylenediaminetetraacetic acid] | 87% | 67% | 100% | 100% | 100% | 100% | 30% | 32% | 98% | 94% | 96% | 100%
O=C(O)CN(CCOCCOCCN(CC(=O)O)CC(=O)O)CC(=O)O [EGTA, ethyleneglycoldiamine tetraacetic acid] | 77% | 200% | 100% | 163% | 86% | 88% | 26% | 29% | 100% | 90% | 100% | 100%
[Cl][Fe]([Cl])[Cl] [FeCl3] | 92% | 2* % | 79% | 61% | 81% | 78% | 22% | 21% | 97% | 75% | 61* % | 45* %
[Mg+2] [Magnesium] | 79% | 467* % | 100% | 477* % | 73% | 70% | 96% | 85% | 97% | 91% | 145* % | 123* %
Triton X-100 | 19% | 33* % | 54* % | 59% | 62% | 39% | 0.9% | 0% | 71% | 52% | 4* % | 2* %
